{"source": "patent US10030064B2", "about": "“Mammalian cell culture processes for protein production” (priority 2009, dated 2018)", "format_in_all_cases": "cell-based, Chinese hamster", "key": {"CHO cells": {"test_system": "CHO cells", "test": "Fed-batch 10-L bioreactor CHO culture: VCD, viability, titer", "procedure": "Bioreactor experiments were performed in 10-L bioreactors (Sartorius Stedim Biotech, France) with starting working volumes of 5 L. Agitation, pH and dissolved oxygen were controlled at 150 rpm, 7.05, and 50% air saturation, respectively. Temperature was initially controlled at 37° C. and was shifted to lower temperature during the culture to extend the culture viability. The bioreactors were operated in a batch fed mode and were fed daily starting on day 3 with the proprietary feed medium to maintain adequate concentrations for glucose and other nutrients. Samples were taken during the cell culture process and analyzed for cell density, cell viability, substrates and metabolites.\nThe eluted protein was quantified using a 10-level standard curve.\nDifferent from shake flask runs, bioreactor runs were extended to 14 days, the culture temperature was shifted to a lower temperature during the late exponential phase of the culture, and a proprietary feeding medium was used instead of feeding only glucose and glutamine."}, "[1]": {"test_system": "CHO cells secreting an IgG-fusion protein", "test": "Shake flask CHO culture: SEC-HPLC of high molecular weight (HMW) species in secreted IgG-fusion protein", "procedure": "The CHO cell line used in this study was originally subcloned from DG44 parental cells and cultured in a protein-free proprietary growth medium. The host cells were genetically engineered to secrete an IgG-fusion protein under the control of CMV promoter.\nThe experiments were carried out in 250-mL shake flasks (VWR international) with starting volumes of 100 mL and initial cell densities of 6×10^5 cells/mL. Shake flasks were placed on a shaker platform (VWR international) at 150 rpm rotating speed. Cells were cultured under standard humidified condition at 37° C. and 6% CO2, for a ten-day duration with daily pH adjustment using 1M sodium carbonate, and fed with glucose and glutamine every two days in order to maintain them at certain level. Cell density, cell viability and substrates/metabolites were offline-analyzed by an automated cell counting system Cedex (Innovatis AG, Bielefeld, Germany) and a Bioprofile Analyzer 400 (Nova Biomedical Corporation, Waltham, Mass.). Supernatant from each culture harvest was collected for SEC analysis.\nThe main components of HMW species were dimers and trimers formed covalently or non-covalently and categorically considered to be protein aggregates."}, "[2]": {"test_system": "GILZ (glucocorticoid-induced leucine zipper)", "test": "qRT-PCR of GILZ gene expression in CHO cells", "conditions": "1 μM DEX added day 2", "procedure": "Purified RNA was treated with RNasefree DNaseI (Qiagen) and then used as a template to synthesize the first-strand cDNA using RT^2 First Strand Kit (SA Biosciences, Frederick, Md.). Expression of GILZ was quantitatively determined using GILZ specific TaqMan MGB probe (6-FAM-[…]) and primers (Forward: 5-[…]-3 and Reverse: 5-[…]-3). 20 ng of cDNA was amplified using 900 nM primers and 250 nM probe in 1× TaqMan Fast Universal PCR Master Mix (Applied Biosystems, Carlsbad, Calif.). Reactions were run in triplicate on the Applied Biosystems 7500 Fast Real-Time PCR System using the universal cycling parameters (20 s 95° C., 40 cycles of 3 s 95° C., 30 s 60° C.). Parallel reactions were set up on the same plate analyzing β-Actin in each sample as an endogenous control. The threshold cycle of each gene was normalized against the threshold cycle of “housekeeping gene” […]. Normalized changes in gene expression with respect to the control were calculated using delta-delta threshold cycle method (Livak and Schmittgen, 2001).\nGILZ was analyzed using qRT-PCR to validate the gene expression profiles obtained by microarray analysis. […] Parallel reactions were set up on the same plate analyzing β-Actin in each sample as an endogenous control."}, "[3]": {"conditions": "day 14, 1 μM DEX added on day 2"}, "[4]": {"conditions": "day 14, 1 μM DEX added on day 7"}}}
{"smiles": "C[C@@H]1C[C@H]2[C@@H]3CCC4=CC(=O)C=C[C@]4(C)[C@@]3(F)[C@@H](O)C[C@]2(C)[C@@]1(O)C(=O)CO", "note": "[DEX, dexamethasone]", "values": [{"measurement": "maximum cell density", "setting": "CHO cells; 1 μM DEX added on either day 2 or day 7, day 8", "value": "approximately 8.3 ×10^6 cell/mL"}, {"measurement": "Cell viability", "setting": "CHO cells; day 6, all conditions", "value": 94, "unit": "%"}, {"measurement": "Normalized protein titer", "setting": "CHO cells; day 7, prior to the maximum VCD", "value": "approximately 5.5"}, {"measurement": "increase of day 14 normalized titer vs without DEX", "setting": "CHO cells; day 14", "value": 20, "unit": "%"}, {"measurement": "Final VCD", "setting": "CHO cells; [3]", "value": "4.1 ×10^6 cell/mL"}, {"measurement": "percent viability", "setting": "CHO cells; [3]", "value": 55, "unit": "%"}, {"measurement": "Final VCD", "setting": "CHO cells; [4]", "value": "3.5 ×10^6 cell/mL"}, {"measurement": "percent viability", "setting": "CHO cells; [4]", "value": 39, "unit": "%"}, {"measurement": "harvest normalized titer", "setting": "CHO cells; day 14, both bioreactors with DEX", "value": 12.5}, {"measurement": "decrease of percentage of HMW species", "setting": "[1]; 0.1 μM DEX alone", "value": "approximately 17%"}, {"measurement": "reduction of protein aggregation (percentage of HMW species)", "setting": "[1]; 1 μM DEX added day 2, supernatant day 10, vs control", "value": 15, "unit": "%"}, {"measurement": "normalized expression profile change of GILZ (qRT-PCR)", "setting": "[2]; day 5 samples", "value": "7.66±1.08"}, {"measurement": "normalized expression profile change of GILZ (qRT-PCR)", "setting": "[2]; day 8 samples", "value": "10.48±2.16"}]}
